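A five-concentration, 48-hour dose response in 96-well plates underlies each endpoint, interpolated linearly between surrounding concentrations. GI50 = concentration required for 50% inhibition of growth.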 Active and inactive are the calls of the source. Rule as the data show it: active = GI50 up to about 1.1 µM and inactive = higher.
Legend:
Assay in all cases: NCI-60 cell line screen, 48 h
NCI/ADR-RES = test system: NCI/ADR-RES
OVCAR-5 = test system: OVCAR-5
OVCAR-3 = test system: OVCAR-3
A498 = test system: A498
KM12 = test system: KM12
Malme-3M = test system: Malme-3M
HT-29 = test system: HT-29
A549 = test system: A549
SNB-19 = test system: SNB-19
T47D = test system: T47D
SR = test system: SR
SK-MEL-5 = test system: SK-MEL-5
K562 = test system: K562
CCRF-CEM = test system: CCRF-CEM
HOP-62 = test system: HOP-62
UACC-257 = test system: UACC-257
IGROV-1 = test system: IGROV-1
U-251 = test system: U-251
HCC 2998 = test system: HCC 2998
NCI-H460 = test system: NCI-H460

SMILES	GI50 (NCI/ADR-RES)	GI50 (OVCAR-5)	GI50 (OVCAR-3)	GI50 (A498)	GI50 (KM12)	GI50 (Malme-3M)	GI50 (HT-29)	GI50 (A549)	GI50 (SNB-19)	GI50 (T47D)	GI50 (SR)	GI50 (SK-MEL-5)	GI50 (K562)	GI50 (CCRF-CEM)	GI50 (HOP-62)	GI50 (UACC-257)	GI50 (IGROV-1)	GI50 (U-251)	GI50 (HCC 2998)	GI50 (NCI-H460)
O=c1[nH]c(=O)c2c([nH]1)[nH]c1ccccc12	> 100 µM (inactive)	> 100 µM (inactive)	65.2 µM (inactive)	> 100 µM (inactive)	37.8 µM (inactive)	> 100 µM (inactive)	> 100 µM (inactive)	> 100 µM (inactive)	> 100 µM (inactive)	> 100 µM (inactive)	> 100 µM (inactive)	> 100 µM (inactive)	> 100 µM (inactive)	> 100 µM (inactive)	> 100 µM (inactive)	> 100 µM (inactive)	> 100 µM (inactive)	–	–	–
COc1cc(/C=C/C2=NN(c3cccc(S(=O)(=O)O)c3)C3(C2)C(Cl)C(=O)N3c2nc3ccccc3s2)ccc1O (stereo unspecified)	27.4 µM (inactive)	20.2 µM (inactive)	–	55.6 µM (inactive)	19.1 µM (inactive)	19.7 µM (inactive)	20.7 µM (inactive)	31 µM (inactive)	65.9 µM (inactive)	6.47 µM (inactive)	15.6 µM (inactive)	23.6 µM (inactive)	20.8 µM (inactive)	17.7 µM (inactive)	–	19.9 µM (inactive)	13.7 µM (inactive)	18 µM (inactive)	20.7 µM (inactive)	32.7 µM (inactive)
C=CCSC1=N/C(=C\c2ccco2)C(=O)N1CC=C	85.7 µM (inactive)	> 100 µM (inactive)	95.3 µM (inactive)	27.2 µM (inactive)	64.4 µM (inactive)	> 100 µM (inactive)	68.4 µM (inactive)	79.1 µM (inactive)	> 100 µM (inactive)	28.2 µM (inactive)	25.4 µM (inactive)	37.5 µM (inactive)	35.2 µM (inactive)	42.6 µM (inactive)	> 100 µM (inactive)	77.6 µM (inactive)	> 100 µM (inactive)	> 100 µM (inactive)	> 100 µM (inactive)	> 100 µM (inactive)
C/C(=N\O)c1cccc(Nc2nc3ccccc3c3occc23)c1	13.1 µM (inactive)	14.9 µM (inactive)	13.7 µM (inactive)	14.8 µM (inactive)	10 µM (inactive)	14.4 µM (inactive)	4.32 µM (inactive)	7.33 µM (inactive)	16.9 µM (inactive)	7.73 µM (inactive)	5.81 µM (inactive)	13.6 µM (inactive)	7.85 µM (inactive)	8.02 µM (inactive)	18.3 µM (inactive)	< 0.01 µM (active)	–	19.4 µM (inactive)	14.6 µM (inactive)	4.35 µM (inactive)
CCCCCCCCCCCCCCCCOC[C@@H](COC(c1ccccc1)(c1ccccc1)c1ccccc1)O[PH](=S)OC (stereo partly specified)	22.6 µM (inactive)	10.8 µM (inactive)	13.2 µM (inactive)	11.5 µM (inactive)	4.3 µM (inactive)	–	16.8 µM (inactive)	5.61 µM (inactive)	4.79 µM (inactive)	16.2 µM (inactive)	2.33 µM (inactive)	4.81 µM (inactive)	16.4 µM (inactive)	11.7 µM (inactive)	–	11.6 µM (inactive)	13.7 µM (inactive)	4.04 µM (inactive)	–	1.6 µM (inactive)
C[C@H](CS)C(=O)N1c2ccccc2C[C@H]1C(=O)O	> 100 µM (inactive)	> 100 µM (inactive)	> 100 µM (inactive)	> 100 µM (inactive)	> 100 µM (inactive)	–	97.1 µM (inactive)	> 100 µM (inactive)	> 100 µM (inactive)	56 µM (inactive)	> 100 µM (inactive)	> 100 µM (inactive)	> 100 µM (inactive)	> 100 µM (inactive)	> 100 µM (inactive)	> 100 µM (inactive)	> 100 µM (inactive)	> 100 µM (inactive)	37.5 µM (inactive)	> 100 µM (inactive)
COc1cc2c(cc1OC)C13CCN4C=C5CCOC6CC(=O)N2C1C6C5CC43 (stereo unspecified)	> 100 µM (inactive)	> 100 µM (inactive)	> 100 µM (inactive)	> 100 µM (inactive)	> 100 µM (inactive)	> 100 µM (inactive)	> 100 µM (inactive)	> 100 µM (inactive)	> 100 µM (inactive)	> 100 µM (inactive)	> 100 µM (inactive)	> 100 µM (inactive)	> 100 µM (inactive)	> 100 µM (inactive)	> 100 µM (inactive)	> 100 µM (inactive)	> 100 µM (inactive)	> 100 µM (inactive)	–	> 100 µM (inactive)
CCSc1nn(-c2c3ccccc3nc3ccccc23)c(=S)s1	> 100 µM (inactive)	> 100 µM (inactive)	> 100 µM (inactive)	> 100 µM (inactive)	> 100 µM (inactive)	–	> 100 µM (inactive)	> 100 µM (inactive)	> 100 µM (inactive)	> 100 µM (inactive)	> 100 µM (inactive)	> 100 µM (inactive)	> 100 µM (inactive)	> 100 µM (inactive)	> 100 µM (inactive)	> 100 µM (inactive)	> 100 µM (inactive)	> 100 µM (inactive)	> 100 µM (inactive)	> 100 µM (inactive)
CCOC(=O)c1sc2nc(SC)nc3c2c1NCN3c1ccc2c(c1)OCCCO2	22.1 µM (inactive)	> 100 µM (inactive)	18.6 µM (inactive)	7.98 µM (inactive)	4.18 µM (inactive)	> 100 µM (inactive)	–	9.48 µM (inactive)	8.09 µM (inactive)	68.1 µM (inactive)	> 100 µM (inactive)	12.2 µM (inactive)	> 100 µM (inactive)	> 100 µM (inactive)	27.9 µM (inactive)	> 100 µM (inactive)	> 100 µM (inactive)	7.57 µM (inactive)	26.3 µM (inactive)	25.7 µM (inactive)
c1cncc(CC2(c3cc4ccccc4[nH]3)OCCO2)c1	> 100 µM (inactive)	–	–	> 100 µM (inactive)	> 100 µM (inactive)	> 100 µM (inactive)	> 100 µM (inactive)	81.8 µM (inactive)	> 100 µM (inactive)	> 100 µM (inactive)	85.5 µM (inactive)	61.8 µM (inactive)	–	> 100 µM (inactive)	–	66.5 µM (inactive)	22.1 µM (inactive)	> 100 µM (inactive)	> 100 µM (inactive)	> 100 µM (inactive)
CCOC(=O)CC1(N)CC2c3ccccc3OC(=O)C2C(=O)N1 (stereo unspecified)	> 100 µM (inactive)	> 100 µM (inactive)	> 100 µM (inactive)	> 100 µM (inactive)	> 100 µM (inactive)	> 100 µM (inactive)	> 100 µM (inactive)	> 100 µM (inactive)	> 100 µM (inactive)	> 100 µM (inactive)	> 100 µM (inactive)	–	> 100 µM (inactive)	> 100 µM (inactive)	> 100 µM (inactive)	> 100 µM (inactive)	> 100 µM (inactive)	> 100 µM (inactive)	> 100 µM (inactive)	> 100 µM (inactive)
O=C(NNC(=S)NC1CCCCC1)c1csc(NC(=S)NC2CCCCC2)n1	2.74 µM (inactive)	12.8 µM (inactive)	4.04 µM (inactive)	21.5 µM (inactive)	10.6 µM (inactive)	11.2 µM (inactive)	> 100 µM (inactive)	7.89 µM (inactive)	12 µM (inactive)	13.1 µM (inactive)	5.4 µM (inactive)	2.01 µM (inactive)	–	5.73 µM (inactive)	12.4 µM (inactive)	3.24 µM (inactive)	3.52 µM (inactive)	5.73 µM (inactive)	3.12 µM (inactive)	–
CC(=O)O[C@H]1C[C@H](O[C@H]2[C@@H](O)C[C@H](O[C@H]3[C@@H](O)C[C@H](O[C@H]4CC[C@@]5(C)[C@H](CC[C@@H]6[C@@H]5C[C@@H](O)[C@]5(C)[C@@H](C7=CC(=O)OC7)CC[C@]65O)C4)O[C@@H]3C)O[C@@H]2C)O[C@H](C)[C@H]1O[C@@H]1O[C@H](CO)[C@@H](O)[C@H](O)[C@H]1O [LANATOSIDE C]	0.0364 µM (active)	0.0869 µM (active)	0.041 µM (active)	0.0897 µM (active)	0.104 µM (active)	0.0678 µM (active)	0.048 µM (active)	0.0146 µM (active)	0.168 µM (active)	0.0778 µM (active)	0.1 µM (active)	0.0465 µM (active)	0.04 µM (active)	–	0.0264 µM (active)	0.238 µM (active)	0.0435 µM (active)	0.0741 µM (active)	0.148 µM (active)	0.0138 µM (active)
COc1cc2c(cc1OC)C(=O)N(c1ccc(O)cc1)C2	> 100 µM (inactive)	> 100 µM (inactive)	> 100 µM (inactive)	> 100 µM (inactive)	–	> 100 µM (inactive)	> 100 µM (inactive)	> 100 µM (inactive)	> 100 µM (inactive)	> 100 µM (inactive)	> 100 µM (inactive)	> 100 µM (inactive)	> 100 µM (inactive)	> 100 µM (inactive)	> 100 µM (inactive)	> 100 µM (inactive)	> 100 µM (inactive)	> 100 µM (inactive)	> 100 µM (inactive)	> 100 µM (inactive)
O=C(/C=C/c1cccc(Br)c1)c1cccs1	23.6 µM (inactive)	–	–	16.5 µM (inactive)	13.7 µM (inactive)	22.1 µM (inactive)	11.5 µM (inactive)	17.4 µM (inactive)	14.2 µM (inactive)	15.3 µM (inactive)	10.1 µM (inactive)	16.9 µM (inactive)	3.13 µM (inactive)	4.23 µM (inactive)	26 µM (inactive)	18.4 µM (inactive)	17.1 µM (inactive)	13.9 µM (inactive)	23 µM (inactive)	16.2 µM (inactive)

Source: ChEMBL document CHEMBL1201862, “PubChem BioAssay data set” (2004)
